Key:
[1] = molar heat capacity at constant pressure; conditions: 101.33 kPa
[2] = Molar enthalpy of transition or fusion; conditions: DSC
[3] = DSC

C[n+]1ccn(Cc2ccccc2)c1.F[B-](F)(F)F [1-benzyl-3-methylimidazolium tetrafluoroborate]
[1]
Conditions | molar heat capacity at constant pressure [J/K/mol]
261.7 K, Crystal, Small sample (50 mg) DSC | 292.62
265 K, Crystal, Small sample (50 mg) DSC | 295.4
270 K, Crystal, Small sample (50 mg) DSC | 299.6
275 K, Crystal, Small sample (50 mg) DSC | 304.74
275.65 K, Metastable crystal, Small sample (50 mg) DSC | 283.68
280 K, Crystal, Small sample (50 mg) DSC | 309.29
280 K, Metastable crystal, Small sample (50 mg) DSC | 287.35
285 K, Crystal, Small sample (50 mg) DSC | 313.98
285 K, Metastable crystal, Small sample (50 mg) DSC | 292.48
290 K, Crystal, Small sample (50 mg) DSC | 319.04
290 K, Metastable crystal, Small sample (50 mg) DSC | 298.09
295 K, Crystal, Small sample (50 mg) DSC | 324.16
295 K, Metastable crystal, Small sample (50 mg) DSC | 303.57
298.15 K, Crystal, Drop calorimetry | 325.85
298.15 K, Metastable crystal, Drop calorimetry | 304.61
300 K, Crystal, Small sample (50 mg) DSC | 329.01
300 K, Metastable crystal, Small sample (50 mg) DSC | 307.82
305 K, Crystal, Small sample (50 mg) DSC | 333.82
305 K, Metastable crystal, Small sample (50 mg) DSC | 312.26
310 K, Crystal, Small sample (50 mg) DSC | 338.5
310 K, Metastable crystal, Small sample (50 mg) DSC | 316.56
315 K, Crystal, Small sample (50 mg) DSC | 343.23
315 K, Metastable crystal, Small sample (50 mg) DSC | 320.92
318.98 K, Metastable crystal, Small sample (50 mg) DSC | 324.78
320 K, Crystal, Small sample (50 mg) DSC | 348.35
325 K, Crystal, Small sample (50 mg) DSC | 353.67
328.42 K, Crystal, Small sample (50 mg) DSC | 356.83
345.5 K, Small sample (50 mg) DSC, Liquid | 417.35
350 K, Small sample (50 mg) DSC, Liquid | 420.2
355 K, Small sample (50 mg) DSC, Liquid | 423.44
357.55 K, Small sample (50 mg) DSC, Liquid | 424.91

Conditions | Molar enthalpy of transition or fusion, [2] [kcal/mol] | Triple point temperature, [3] [K]
Crystal | 4.57 | 346.2
Metastable crystal | 3.97 | 336.5

Conditions | Glass transition temperature [°C]
[3] | -37.8

C[n+]1ccn(Cc2ccccc2)c1.O=S(=O)([O-])C(F)(F)C(F)F
[1]
Conditions | molar heat capacity at constant pressure [J/K/mol]
278.51 K, Crystal, Small sample (50 mg) DSC | 393.57
283.62 K, Crystal, Small sample (50 mg) DSC | 402.07
288.72 K, Crystal, Small sample (50 mg) DSC | 411.24
293.83 K, Crystal, Small sample (50 mg) DSC | 423.44
298.15 K, Crystal, Drop calorimetry | 434.75
298.15 K, Metastable liquid, Drop calorimetry | 509.51
334.67 K, Liquid, Small sample (50 mg) DSC | 527.08
339.77 K, Liquid, Small sample (50 mg) DSC | 530.26
344.88 K, Liquid, Small sample (50 mg) DSC | 533.48
349.98 K, Liquid, Small sample (50 mg) DSC | 537.12
355.09 K, Liquid, Small sample (50 mg) DSC | 540.53

Crystal
Conditions | Molar enthalpy of transition or fusion [kcal/mol] | Triple point temperature [K]
[2] | 5.64 | –
[3] | – | 315.4

Conditions | Glass transition temperature [°C]
[3] | -44.0

C[n+]1ccn(Cc2ccccc2)c1.[Cl-] [1-benzyl-3-methyl-1H-imidazolium chloride]
molar heat capacity at constant pressure [J/K/mol], [1]
Conditions | Crystal | Metastable liquid
261.06 K, Small sample (50 mg) DSC | 238.97 | –
265 K, Small sample (50 mg) DSC | 243.67 | –
270 K, Small sample (50 mg) DSC | 252.99 | –
275 K, Small sample (50 mg) DSC | 261.15 | –
277.11 K, Small sample (50 mg) DSC | – | 329.64
280 K, Small sample (50 mg) DSC | 269.17 | 330.72
285 K, Small sample (50 mg) DSC | 278.83 | 332.88
289.14 K, Small sample (50 mg) DSC | 288.47 | –
290 K, Small sample (50 mg) DSC | – | 335.29
295 K, Small sample (50 mg) DSC | – | 338
298.15 K, Drop calorimetry | – | 338.43
300 K, Small sample (50 mg) DSC | – | 340.37
305 K, Small sample (50 mg) DSC | – | 342.49
310 K, Small sample (50 mg) DSC | – | 344.71
315 K, Small sample (50 mg) DSC | – | 346.85
320 K, Small sample (50 mg) DSC | – | 348.98
325 K, Small sample (50 mg) DSC | – | 351.32
330 K, Small sample (50 mg) DSC | – | 353.53
335 K, Small sample (50 mg) DSC | – | 355.73
340 K, Small sample (50 mg) DSC | – | 358
345 K, Small sample (50 mg) DSC | – | 360.85
350 K, Small sample (50 mg) DSC | – | 363.87
355 K, Small sample (50 mg) DSC | – | 367.01

Conditions | Glass transition temperature [°C]
[3] | -8.4

C[n+]1ccn(Cc2ccccc2)c1.O=S(=O)([N-]S(=O)(=O)C(F)(F)F)C(F)(F)F
[1], Liquid
Conditions | molar heat capacity at constant pressure [J/K/mol]
258.09 K, Small sample (50 mg) DSC | 588.22
263.2 K, Small sample (50 mg) DSC | 589.8
268.3 K, Small sample (50 mg) DSC | 592.39
273.38 K, Small sample (50 mg) DSC | 596.83
278.51 K, Small sample (50 mg) DSC | 597.13
283.61 K, Small sample (50 mg) DSC | 599.43
288.72 K, Small sample (50 mg) DSC | 601.59
293.82 K, Small sample (50 mg) DSC | 603.91
298.15 K, Drop calorimetry | 598.96
298.93 K, Small sample (50 mg) DSC | 606.63
304.03 K, Small sample (50 mg) DSC | 609.41
309.14 K, Small sample (50 mg) DSC | 611.94
314.24 K, Small sample (50 mg) DSC | 615.52
319.35 K, Small sample (50 mg) DSC | 618.97
324.45 K, Small sample (50 mg) DSC | 621.42
329.41 K, Small sample (50 mg) DSC | 624.07
334.67 K, Small sample (50 mg) DSC | 626.99
339.78 K, Small sample (50 mg) DSC | 630.16
344.88 K, Small sample (50 mg) DSC | 633.62
349.99 K, Small sample (50 mg) DSC | 636.94
355.08 K, Small sample (50 mg) DSC | 640.33

Conditions | Glass transition temperature [°C]
[3] | -56.4

Cn1cc[n+](Cc2ccccc2)c1.F[P-](F)(F)(F)(F)F [1-benzyl-3-methylimidazolium hexafluorophosphate]
[1], Crystal
Conditions | molar heat capacity at constant pressure [J/K/mol]
258.09 K, Small sample (50 mg) DSC | 321.38
263.2 K, Small sample (50 mg) DSC | 325.69
268.3 K, Small sample (50 mg) DSC | 330.39
273.41 K, Small sample (50 mg) DSC | 335.64
278.51 K, Small sample (50 mg) DSC | 339.82
283.62 K, Small sample (50 mg) DSC | 344.42
288.72 K, Small sample (50 mg) DSC | 348.47
293.83 K, Small sample (50 mg) DSC | 352.84
298.15 K, Drop calorimetry | 360.42
298.93 K, Small sample (50 mg) DSC | 357.16
304.04 K, Small sample (50 mg) DSC | 361.74
309.14 K, Small sample (50 mg) DSC | 366.16
314.25 K, Small sample (50 mg) DSC | 371.17
319.35 K, Small sample (50 mg) DSC | 376.2
324.46 K, Small sample (50 mg) DSC | 380.3
329.56 K, Small sample (50 mg) DSC | 384.8
334.67 K, Small sample (50 mg) DSC | 389.73
339.77 K, Small sample (50 mg) DSC | 394.64
344.88 K, Small sample (50 mg) DSC | 399.86
349.98 K, Small sample (50 mg) DSC | 404.92
355.09 K, Small sample (50 mg) DSC | 410.63

Crystal
Conditions | Molar enthalpy of transition or fusion [kcal/mol] | Triple point temperature [K]
[2] | 5.95 | –
[3] | – | 399.7

Conditions | Glass transition temperature [°C]
[3] | -28.3

Reference: the NIST ThermoML archive (doi:10.1016/j.jct.2016.04.009)
